Source: US7510825B2, “Kits and methods for detection of apoptotic cells” (NST NeuroSurvival Technologies Ltd, priority 2000, dated 2009)

Tests used:
BCL1 bone marrow cells = assay: Detection by DDC of apoptosis in BCL1 bone marrow cells following chemotherapy; format: in vivo, mice
Experimental: (§1) A. Administration of DDC in-vivo: Injection of 200 μl of DDC intravenously. Following 1-2 hours, animal is sacrificed, and the desired organ is placed in a test tube or on a small plate, suitable for liquid nitrogen freezing. The plate is then covered with an aluminum foil, and transferred to liquid nitrogen. Following 5-30 minutes the specimen is being frozen to −80° C. and kept at −80° C. for at least 16 hr. B. Analysis of the Specimen: • a. Whole organ imaging Ex-vivo whole organ fluorescence imaging may be carried out on freshly excised specimen, that can be analyzed under a stereomicroscope (such as Leica MZ FL III, Leica Switzerland). DDC may be visualized using 360cx and >420cm nm filter set. Emitted fluorescence can be imaged using appropriate camera and software, such as a Leica DC 300F Distal camera and images can be processed and analyzed by Leica QWin Lite software. • b. Histological analysis, from the frozen organ or tissue, 4 μm cryosections are prepared on slides. Analysis of the tissue sections can be performed using a fluorescence microscope with a UV filter characterized by excitation at 360-370 nm (band pass) and emission at 420 nm (barrier filter) In case that staining of the examined tissue is desired, the following procedures can be applied: […]

[1] = test system: neuronal cells of the injured brain area; assay: Detection by DDC of apoptosis following traumatic brain injury (TBI); format: in vivo, mice; conditions: DDC 24 hr after traumatic injury, brain excised after 2 hr
Experimental: A. Administration of DDC in-vivo: Injection of 200 μl of DDC intravenously. Following 1-2 hours, animal is sacrificed, and the desired organ is placed in a test tube or on a small plate, suitable for liquid nitrogen freezing. The plate is then covered with an aluminum foil, and transferred to liquid nitrogen. Following 5-30 minutes the specimen is being frozen to −80° C. and kept at −80° C. for at least 16 hr. B. Analysis of the Specimen: • a. Whole organ imaging Ex-vivo whole organ fluorescence imaging may be carried out on freshly excised specimen, that can be analyzed under a stereomicroscope (such as Leica MZ FL III, Leica Switzerland). DDC may be visualized using 360cx and >420cm nm filter set. Emitted fluorescence can be imaged using appropriate camera and software, such as a Leica DC 300F Distal camera and images can be processed and analyzed by Leica QWin Lite software. • b. Histological analysis, from the frozen organ or tissue, 4 μm cryosections are prepared on slides. Analysis of the tissue sections can be performed using a fluorescence microscope with a UV filter characterized by excitation at 360-370 nm (band pass) and emission at 420 nm (barrier filter) In case that staining of the examined tissue is desired, the following procedures can be applied:
TBI model was performed on Balb/C, 8-9 weeks old, according to the protocol detailed in Yun Chen et al., 1996. […]

[2] = test system: L5178-S (LY-S) murine lymphoma tumors; assay: Detection by DDC of tumor cell apoptosis in lymphoma-bearing mice after Taxol; format: in vivo; conditions: Taxol 20 mg/kg treated vs control animals; DDC i.v. 24 h after Taxol, sacrifice 2 h later
Experimental: as §1

With `CN(C)c1cccc2c(S(=O)(=O)NC(CSSCC(NS(=O)(=O)c3cccc4c(N(C)C)cccc34)C(=O)O)C(=O)O)cccc12` (stereo not shown) [DDC] as the compound, how does the “fluorescent labeling of bone marrow cells” value (BCL1 bone marrow cells; 24 hr following Cyclophosphamide 300 mg/kg and Taxol 20 mg/kg) read?
The value was “a significant number of apoptotic/necrotic cells are labeled”.

What about the “fluorescent labeling of bone marrow cells” value (BCL1 bone marrow cells; non-treated group) of the same compound?
Its value is “no fluorescent labeling”.

What about the “correlation of DDC staining with H&E staining” value [1] of the same compound?
Its value is “correlated with H&E staining”.

What about the “DDC uptake into tumors” value [2] of the same compound?
Its value is “marked increase of DDC uptake”.
